These results are taken from US9126999B2, “Tetrahydropyrazolopyrimidine compounds” (EISAI R&D MANAGEMENT CO., LTD., priority 2012, dated 2015).

The target in the experiment is T1, Human TLR9 (Homo sapiens, UniProt Q9NR96).
T1 sequence (Q9NR96 26-1032): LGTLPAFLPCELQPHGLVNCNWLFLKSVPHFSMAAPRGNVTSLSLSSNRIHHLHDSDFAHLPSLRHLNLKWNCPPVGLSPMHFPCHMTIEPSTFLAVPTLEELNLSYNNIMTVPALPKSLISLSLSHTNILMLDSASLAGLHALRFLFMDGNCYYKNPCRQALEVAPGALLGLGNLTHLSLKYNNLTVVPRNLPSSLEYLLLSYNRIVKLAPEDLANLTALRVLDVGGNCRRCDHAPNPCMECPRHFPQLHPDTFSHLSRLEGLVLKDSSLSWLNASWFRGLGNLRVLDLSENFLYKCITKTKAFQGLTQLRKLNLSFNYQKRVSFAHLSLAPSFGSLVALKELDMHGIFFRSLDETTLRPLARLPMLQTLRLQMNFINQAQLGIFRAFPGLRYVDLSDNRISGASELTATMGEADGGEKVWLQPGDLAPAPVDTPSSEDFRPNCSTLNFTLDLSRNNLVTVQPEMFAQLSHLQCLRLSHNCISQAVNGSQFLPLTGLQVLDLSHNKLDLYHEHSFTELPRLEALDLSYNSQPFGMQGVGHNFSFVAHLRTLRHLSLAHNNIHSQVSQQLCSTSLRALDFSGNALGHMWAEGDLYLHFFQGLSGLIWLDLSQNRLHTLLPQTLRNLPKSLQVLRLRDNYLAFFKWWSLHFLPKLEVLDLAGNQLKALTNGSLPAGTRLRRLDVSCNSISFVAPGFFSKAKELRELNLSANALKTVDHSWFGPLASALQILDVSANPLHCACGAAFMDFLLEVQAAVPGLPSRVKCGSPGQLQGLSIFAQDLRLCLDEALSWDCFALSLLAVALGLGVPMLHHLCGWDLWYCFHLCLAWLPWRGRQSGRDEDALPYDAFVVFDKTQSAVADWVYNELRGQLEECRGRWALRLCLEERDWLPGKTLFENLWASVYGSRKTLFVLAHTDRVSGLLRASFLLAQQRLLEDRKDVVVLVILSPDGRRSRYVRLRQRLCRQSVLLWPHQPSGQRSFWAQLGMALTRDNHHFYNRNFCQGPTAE
The experiment is described as follows: HEK-293 NF-kappaB luciferase reporter assay, CpG-ODN stimulus. Set-up: engineered to stably and individually express human TLR4, TLR7 or TLR9 full-length ORF cDNAs; expressed in transfected cells; host or cells: HEK-293 (ATCC) with ELAM-1 NF-kappaB luciferase reporter. The following applies: ligand CpG-ODN, analyte NFkB-luciferase. The experiment is classed as cell-based. From the text:
In vitro pharmacology: HEK-293 cells (ATCC) were engineered to stably express a NF-kappaB transcription factor inducible E-selectin (ELAM-1) luciferase reporter derived from the plasmid pGL3 (Promega) containing base pairs −2241 bp to −254 bp from the promoter of the human E-selectin gene (Accession No. NM_000450). These cells were then subsequently engineered to stably and individually express human TLR4, TLR7 or TLR9 full-length ORF cDNAs. Human TLR4 cDNA (Accession No. NM_138554) was cloned into pcDNA 3.0 expression vector (Invitrogen). TLR4 transfected cells were also engineered to express human MD-2 co-receptor [MD-2 cDNA (Accession No. NM_015364) was cloned into the pEF-BOS vector] and were supplemented with 10 nM soluble CD14 (R&D Systems) in the media to optimize LPS responsiveness. Human TLR9 cDNA (Accession No. NM_017442) was cloned into the pBluescript II KS vector (Agilent). Human TLR7 cDNA (Accession No. NM_016562) was obtained from OriGene. HEK-293 cells stably expressing human TLR8 (Accession No. NM_138636) or mouse TLR7 (Accession No. NM_133211) were purchased from InvivoGen and were then stably transfected with pNiFty2(NF-kappaB)-luciferase reporter plasmid (InvivoGen). […]
(In general: Reporter assays use an easily measured gene product as a stand-in for the process of interest.)

SMILES strings stand for the structures.

Turning to `COc1ccc([C@@H]2C[C@H](C(F)(F)F)n3nc(-c4ccc(C(=O)N5CCNCC5)cc4)cc3N2)cc1OC` [ER-892887, (4-((5S,7R)-5-(3,4-dimethoxyphenyl)-7-(trifluoromethyl)-4,5,6,7-tetrahydropyrazolo[1,5-a]pyrimidin-2-yl)phenyl)(piperazin-1-yl)methanone], the concentration for half-maximal inhibition (IC50) – broadly, the concentration at which inhibition is half-maximal – was greater than 10 µM.
